Data: US20050170485A1, “Culture having phenol oxidase-like activity” (priority 2002, published 2005)

Experiments:
Assay type in all cases: biochemical
[1] = test system: culture of Flammulina velutipes strain IFO 30601; assay: Oxidative coupling reaction with 4-aminoantipyrine by the culture; conditions: for activity of the culture for the substrate in words, oxidative coupling reaction: pH 7.0; for Specific Activity, Culture (oxidative coupling with 4-aminoantipyrine): reaction pH 7.0, 25° C., substrate 2.0 mM
Method: Next, the oxidative coupling reaction of the culture obtained in (2) in Example 1 mentioned above was determined by using color development as an index by the oxidative condensation of the substrate (hydrogen donor) with 4-aminoantipyrine, catalyzed by the culture of the present invention.
As the hydrogen donors, there were used phenolic compounds (phenol, 2-methoxyphenol, 2,6-dimethoxyphenol, catechol, resorcinol, hydroquinone, pyrogallol, gallic acid, propyl gallate, 1-naphthol, catechin), aminophenolic compounds (o-aminophenol, m-aminophenol, p-aminophenol), diaminophenolic compounds (o-phenylenediamine, m-phenylenediamine, p-phenylenediamine), and heterocyclic compounds (5-hydroxyindole, 2,6-diaminopyridine).
The above-mentioned culture solution was added to a reaction system containing 4-aminoantipyrine and an optional hydrogen donor. Thereafter, the activity of the culture of the present invention was assayed by determining a change in absorbance at 490 nm for the phenolic compound, the diaminophenolic compound and the heterocyclic compound, or determining a change in absorbance at 450 nm for the aminophenolic compound. As to a substrate hardly soluble in water, there was used one obtained by dissolving the substrate in a small amount of dimethyl sulfoxide and diluting the resulting solution with deionized water to a desired concentration. In Table 4, DMSO is an abbreviation for dimethyl sulfoxide.
(§1) Concretely, 190 μl of 105.3 mM phosphate buffer (pH 7.0) containing 0.4 μmol of a substrate and 4.0 μmol of 4-aminoantipyrine was pre-incubated in wells of a 96-well microplate [manufactured by Corning, Costor (registered trademark) 3368] at 25° C. for 1 minute. Next, 10 μl of the above-mentioned culture solution was added to the resulting mixture, and thereafter, the mixture was incubated for 1 hour. A change in absorbance at 490 nm or 450 nm was determined for the resulting product. One unit (U) of the activity regarding the oxidative coupling reaction was defined as an amount for increasing the absorbance by 1 per one minute.

[2] = target: T1, bilirubin oxidase from the strain of the genus Myrothecium (Albifimbria verrucaria, UniProt Q12737); assay: Oxidative coupling reaction with 4-aminoantipyrine by bilirubin oxidase (comparison); conditions: reaction pH 8.0, substrate 2.0 mM
T1 sequence (Q12737 39-572): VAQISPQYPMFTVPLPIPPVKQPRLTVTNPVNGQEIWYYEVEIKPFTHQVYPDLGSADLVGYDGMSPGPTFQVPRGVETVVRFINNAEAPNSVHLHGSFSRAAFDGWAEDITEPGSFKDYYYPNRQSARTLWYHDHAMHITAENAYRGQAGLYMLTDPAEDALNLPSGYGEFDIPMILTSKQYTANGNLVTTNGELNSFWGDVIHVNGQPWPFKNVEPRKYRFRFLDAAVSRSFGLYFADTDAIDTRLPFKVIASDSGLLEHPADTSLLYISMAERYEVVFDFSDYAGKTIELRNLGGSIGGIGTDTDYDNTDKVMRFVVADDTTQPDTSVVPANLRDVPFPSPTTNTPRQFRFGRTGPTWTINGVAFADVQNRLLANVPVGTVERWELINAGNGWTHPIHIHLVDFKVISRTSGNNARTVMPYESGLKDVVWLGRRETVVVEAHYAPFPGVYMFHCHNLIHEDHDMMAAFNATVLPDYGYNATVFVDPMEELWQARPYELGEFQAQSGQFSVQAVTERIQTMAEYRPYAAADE
Method: as §1
In addition, for the comparison, the examination was made in the same manner for bilirubin oxidase from the strain of the genus Myrothecium except that the above-mentioned buffer was replaced with 105.3 mM Tris-HCl buffer (pH 8.0).

[3] = test system: culture of Flammulina velutipes strain IFO 30601; assay: Direct oxidation reaction by the culture; conditions: for Relative Activity, Culture (direct oxidation): reaction pH 7.0, 2-chloro 1,4-phenylenediamine = 100; for activity of the culture compared with laccase from Japanese lacquer, direct oxidation / activity of the culture compared with bilirubin oxidase from the genus Myrothecium, direct oxidation: pH 7.0, relative activities of Table 7; for activity of the culture for the substrate in words, direct oxidation reaction: pH 7.0
Method: Further, the direct oxidation reaction of the culture obtained in the above-mentioned example was determined by using color development due to oxidative polymerization of a substrate generated by the direct action of the culture of the present invention on the substrate as an index.
As the substrates, there were used diaminophenolic compounds (2-chloro 1,4-phenylenediamine, p-phenylenediamine, 2,5-diaminotoluene, N-phenyl-p-phenylenediamine, toluylene-3,4-diamine, m-phenylenediamine), aminophenolic compounds (o-aminophenol, m-aminophenol, 5-amino-o-cresol, p-aminophenol, p-methylaminophenol), and phenolic compounds (2,6-dimethoxyphenol, catechol, resorcinol, hydroquinone, pyrogallol, gallic acid, propyl gallate, 1-naphthol, […], 2,3,4-trihydroxybenzophenone, 2,3,4,4-tetrahydroxybenzophenone). As to a substrate hardly soluble in water, there was used one obtained by dissolving the substrate in a small amount of dimethyl sulfoxide and diluting the resulting solution with deionized distilled water to a desired concentration. In Table 6, %” indicates volume/volume %.
(§2) Concretely, 180 μl of 0.89 mM sodium phosphate buffer (pH 7.0) containing […] substrate was pre-incubated in wells of a 96-well microplate [manufactured by Corning, Costor (registered trademark) 3368] at 25° C. for 1 minute. Next, 20 μl of the above-mentioned culture solution was added to the resulting mixture. A change in absorbance at 490 nm, 450 nm or 405 nm was determined for the resulting product, depending on the substrate. Here, 1 U (unit) of the activity regarding the direct oxidative reaction was defined as an amount for increasing the absorbance by 1 per one minute.

[4] = test system: laccase from Japanese lacquer; assay: Direct oxidation reaction by laccase (comparison); conditions: reaction pH 7.0; 2-chloro 1,4-phenylenediamine = 100
Method: Next, 20 μl of the above-mentioned culture solution was added to the resulting mixture. A change in absorbance at 490 nm, 450 nm or 405 nm was determined for the resulting product, depending on the substrate. Here, 1 U (unit) of the activity regarding the direct oxidative reaction was defined as an amount for increasing the absorbance by 1 per one minute.
(§3) In addition, for the comparison, the substrate specificities at pH 7.0 for laccase from Japanese lacquer and bilirubin oxidase from the strain belonging to the genus Myrothecium were also examined in the same manner.

[5] = target: T2, bilirubin oxidase from the strain belonging to the genus Myrothecium (Albifimbria verrucaria, UniProt Q12737); assay: Direct oxidation reaction by bilirubin oxidase (comparison); parameters: concentration or dose not given beside the values; conditions: reaction pH 7.0; 2-chloro 1,4-phenylenediamine = 100
T2 sequence (Q12737 39-572): T1 sequence (Q12737 39-572)
Method: as §2, §3
The relative activity (%) for each substrate is shown in Table 7, in which the measured value for a case where a representative chemical dye 2-chloro 1,4-phenylenediamine was used as a substrate is 100.

Compound | activity of the culture for the substrate in words, oxidative coupling reaction [1] | Specific Activity, Culture (oxidative coupling with 4-aminoantipyrine) [1] [U/mg Protein] | Specific Activity, Bilirubin Oxidase from Strain Belonging to Genus Myrothecium (oxidative coupling with 4-aminoantipyrine) [2] [U/mg Protein] | Relative Activity, Culture (direct oxidation) [3] [%] | Relative Activity, Laccase from Japanese Lacquer (direct oxidation) [4] [%] | Relative Activity, Bilirubin Oxidase from Strain Belonging to Genus Myrothecium (direct oxidation) [5] [%] | activity of the culture compared with laccase from Japanese lacquer, direct oxidation [3] | activity of the culture for the substrate in words, direct oxidation reaction [3] | activity of the culture compared with bilirubin oxidase from the genus Myrothecium, direct oxidation [3] | activity of the culture for the substrate in words, direct oxidation reaction ([3]; listed as 2,3,4,4-tetrahydrobenzophenone)
Nc1cccc(N)n1 [2,6-Diaminopyridine] | high activity | 37.7 | 2.3 | – | – | – | – | – | – | –
Oc1ccccc1 [Phenol] | – | 8.1 | 0.9 | – | – | – | – | – | – | –
C1=CCC2=CC=CCC2=C1 [1,5-Dihydronaphthalene] | – | – | – | 63 | 47 | 69 | – | – | – | –
Oc1cccc(O)c1 [Resorcinol] | – | 5.7 | 25.6 | 75 | 25 | 91 | higher activity | – | – | –
O=C(c1ccc(O)cc1)c1ccc(O)c(O)c1O [2,3,4,4-Tetrahydroxybenzophenone] | – | – | – | 571 | 179 | 52 | higher activity | high activity | even higher activity | especially high activity
Oc1cccc(O)c1O [Pyrogallol] | – | 3.2 | −27.6 | 184 | 187 | 104 | – | high activity | – | –
Cc1ccc(N)c(N)c1 [Toluylene-3,4-diamine] | – | – | – | 120 | 61 | 45 | – | – | higher activity | –
Oc1cccc2ccccc12 [1-Naphthol] | especially high activity | 18.1 | 33.0 | 17 | 17 | 50 | – | – | even higher activity | –
CNc1ccc(O)cc1 [p-Methylaminophenol] | – | – | – | 304 | 308 | 122 | – | especially high activity | higher activity | –
Nc1ccc(N)c(Cl)c1 [2-Chloro 1,4-phenylenediamine] | – | – | – | 100 | 100 | 100 | – | – | – | –
Nc1ccc(Nc2ccccc2)cc1 [N-Phenyl-p-phenylenediamine] | – | – | – | 174 | 94 | 102 | – | especially high activity | – | –
Nc1ccccc1N [o-Phenylenediamine] | – | 15.1 | 4.5 | – | – | – | – | – | – | –
Nc1cccc(N)c1 [m-Phenylenediamine] | – | 29.7 | 1.7 | 26 | 4 | 14 | even higher activity | – | – | –
Cc1cc(N)ccc1N [2,5-Diaminotoluene] | – | – | – | 80 | 44 | 24 | – | – | higher activity | –
Catechin | especially high activity | 14.0 | 4.6 | – | – | – | – | – | – | –
Oc1ccc2[nH]ccc2c1 [5-Hydroxyindole] | – | 4.7 | 1.9 | – | – | – | – | – | – | –
Cc1ccc(N)cc1O [5-Amino-o-cresol] | – | – | – | 117 | 1 | 19 | even higher activity | – | even higher activity | –
O=C(c1ccccc1)c1ccc(O)c(O)c1O [2,3,4-Trihydroxybenzophenone] | – | – | – | 537 | 175 | 62 | higher activity | especially high activity | even higher activity | –
